Like-named read-outs stand apart in the source and are kept apart here.
Legend:
advanced malignancies = conditions: phase I, cited from earlier work
[1] = system: previously treated patients with SCLC; conditions: phase II, ref Stephenson et al, 2014; cited from earlier work
[2] = system: proliferating cell nuclear antigen (PCNA); test: PCNA RNA expression in whole blood; type: in vivo, human; conditions: for Difference of mean ΔCT values from baseline (ΔΔCT), PCNA: 6 h post dose, whole blood
[3] = system: cell-cycle CDKs 1, 2, 4, and 6 and transcriptional CDKs 7 and 9; conditions: cited from earlier work
human cancer cell lines = conditions: large panel of human cancer cell lines; ref Siemeister et al, 2012; cited from earlier work
[4] = system: patients with advanced malignancies; test: Tumour response; type: in vivo, human
[5] = system: patients with advanced malignancies; test: Tumour response; type: in vivo, human; conditions: 10 patients
xenograft mouse models = conditions: ref Siemeister et al, 2012; cited from earlier work
[6] = 104 patients with solid tumours
[7] = seven patients, lymphoid malignancy dose-escalation cohorts

CC(=O)c1c(C)c2cnc(Nc3ccc(N4CCNCC4)cn3)nc2n(C2CCCC2)c1=O [palbociclib]
Disease control rate (DCR) (advanced malignancies; ref Flaherty et al, 2012): 27%

CCc1cnn2c(NCc3ccc[n+]([O-])c3)cc(N3CCCC[C@H]3CCO)nc12 [dinaciclib]
Objective responses [1]: no objective responses
Disease control rate (DCR) (advanced malignancies; ref Nemunaitis et al, 2013): 20.8%

roniciclib
PCNA expression in peripheral whole blood (fold-change from baseline) ([2]; 6 h post dose on cycle 1, day 1, ovarian cancer and SCLC patients): significantly inhibited expression of PCNA
Difference of mean ΔCT values from baseline (ΔΔCT), PCNA ([2]; Ovarian cancer cohort, Cycle 1, day 1): 1.720
Difference of mean ΔCT values from baseline (ΔΔCT), PCNA ([2]; Ovarian cancer cohort, Cycle 1, day 10): 0.521
Difference of mean ΔCT values from baseline (ΔΔCT), PCNA ([2]; SCLC cohort, Cycle 1, day 1): 1.006
Difference of mean ΔCT values from baseline (ΔΔCT), PCNA ([2]; SCLC cohort, Cycle 1, day 10): 0.224
Activity against CDKs [3]: low nanomolar activity
Anti-proliferative activity (human cancer cell lines): broad-spectrum anti-proliferative activity
Disease control rate (DCR) ([4]; 5 mg BID, solid tumours bearing a CDK-related tumour mutation (n=6)): 33.3%
Complete response [4, 6]: none
Disease control rate (DCR) [4, 6]: 32.7%
Partial response [4, 6]: 1.0%
Radiological progressive disease [4, 6]: 38.5%
Response rate [4, 6]: 1.0%
Stable disease [4, 6]: 31.7%
Disease control rate (DCR) ([4]; lymphoid malignancy dose-escalation cohorts): 42.9%
Complete or partial response [4, 7]: none
Stable disease, patients [4, 7]: three
Complete or partial response [5]: No patients
Stable disease, patients [5]: five
Tumour growth inhibition (xenograft mouse models): strongly inhibited tumour growth in a dose-dependent manner
